Laboratory results published in paper doi:10.1101/2023.12.22.573011v1 (biorxiv, 2023).

Target: full-length TDP-43 (TDP-43) (Homo sapiens, UniProt Q13148)
Test: isothermal titration calorimetry
Format: binding

full-length TDP-43 (TDP-43), sequence (Q13148 whole entry): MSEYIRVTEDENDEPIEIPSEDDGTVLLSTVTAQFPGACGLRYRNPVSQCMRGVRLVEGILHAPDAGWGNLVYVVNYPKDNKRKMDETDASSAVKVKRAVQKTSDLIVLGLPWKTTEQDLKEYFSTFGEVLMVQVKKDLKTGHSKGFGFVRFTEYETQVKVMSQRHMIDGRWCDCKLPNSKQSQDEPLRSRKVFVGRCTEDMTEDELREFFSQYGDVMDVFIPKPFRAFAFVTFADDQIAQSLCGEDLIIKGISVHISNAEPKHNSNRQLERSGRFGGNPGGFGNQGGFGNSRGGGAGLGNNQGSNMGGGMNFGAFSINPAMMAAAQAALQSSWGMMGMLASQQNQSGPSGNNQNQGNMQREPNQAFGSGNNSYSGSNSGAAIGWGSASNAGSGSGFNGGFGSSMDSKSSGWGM

- Kd: 7.8 µM
SMILES: O=C(O[C@@H]1Cc2c(O)cc(O)cc2O[C@@H]1c1cc(O)c(O)c(O)c1)c1cc(O)c(O)c(O)c1 [epigallocatechin gallate]
